For this assay, the target named is T1, ACAT (Rattus norvegicus, UniProt O70536).
T1 construct: The rat peritoneal-derived macrophage was prepared; endogenous in cells; host or cells: rat peritoneal macrophages (primary)
T1 sequence (O70536 1-545): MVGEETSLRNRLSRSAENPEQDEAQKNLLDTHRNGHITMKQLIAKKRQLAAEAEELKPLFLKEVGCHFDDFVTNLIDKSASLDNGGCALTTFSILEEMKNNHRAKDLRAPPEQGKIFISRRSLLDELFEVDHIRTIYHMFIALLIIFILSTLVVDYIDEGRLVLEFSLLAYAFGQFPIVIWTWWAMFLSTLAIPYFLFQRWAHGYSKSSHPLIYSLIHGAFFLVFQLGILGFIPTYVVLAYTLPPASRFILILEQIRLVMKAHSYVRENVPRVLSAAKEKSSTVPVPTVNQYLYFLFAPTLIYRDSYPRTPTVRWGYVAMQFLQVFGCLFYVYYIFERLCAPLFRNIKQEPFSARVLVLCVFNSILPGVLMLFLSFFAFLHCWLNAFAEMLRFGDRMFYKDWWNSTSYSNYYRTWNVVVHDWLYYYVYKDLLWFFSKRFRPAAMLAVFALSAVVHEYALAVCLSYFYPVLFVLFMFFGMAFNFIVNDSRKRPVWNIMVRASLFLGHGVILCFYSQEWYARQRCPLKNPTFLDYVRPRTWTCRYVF
The assay can be described thus: Assay of ACAT inhibitory activity in the macrophage derived from rat peritoneal. Particulars: [9,10-3H]oleic acid, exogenous cholesterol in liposome. Type of assay: cell-based. The method, then: 2. Assay of ACAT inhibitory activity in the macrophage derived from rat peritoneal:
The rat peritoneal-derived macrophage was prepared according to the method disclosed in the literature: Biochimica et Biophysica Acta, 1126, 73-80, 1992. The ACAT activity was determined by a modified method of the method disclosed in the above literature: Biochimica et Biophysica Acta, 1126, 73-80, 1992, i.e., using radioactive [9,10-^3H]oleic acid and exogenous cholesterol contained in the liposome which was re-constituted according to the method disclosed in the literature: Biochimica et Biophysica Acta, 1213, 127-134, 1994, and calculated from the radioactivity of the labeled cholesterolyl oleate.

In patent publication US6452008B2, “Pyridone derivatives and process for preparing the same” (Sumitomo Pharmaceuticals Company, Limited, priority 1998, dated 2002) one finds IC50 data, which are given here for 1 molecule.

As usually defined, the IC50 is the concentration that inhibits the measured activity by half. Read a high IC50 as weaker potency.

With `CCCCn1cc(C)c(-c2cc(C#CCN(CC)CC)ccc2OC)c(NC(=O)Nc2c(C(C)C)cccc2C(C)C)c1=O` [Example 18, N-[1-butyl-2-oxo-4-[5-{3-(diethylamino)-1-propynyl}-2-methoxy]phenyl-5-methyl-1,2-dihydropyridin-3-yl]-N′-(2,6-diisopropylphenyl) urea], the IC50 was found to be 0.016 µM.
